Data taken from US5403574A, “Evaluation and treatment of the multidrug resistance phenotype” (priority 1992, dated 1995).
“Also recorded” adds a separate entry of the source.

Experiments:
P-glycoprotein = details: cited from earlier work
mitochondrial function = details: typical loading activities; cited from earlier work
[1] = tested on: LZ cells (multidrug resistance P-glycoprotein)
Protocol: (§3) Accumulation of Tc-MIBI in LZ cells (highly expressing multidrug resistance) (0) and V79 cells (modestly expressing multidrug resistance) (.cndot.).
(§4) Cell-associated activity was then determined.

[2] = whole body imaging agent; cited from earlier work
V79 and LZ cells = experiment: Cell survival / cytotoxicity, V79 and LZ cells (sulforhodamine B); format: cell-based, hamster; details: 72 hours
Protocol: (§1) FIG. 5. Cell survival studies and LD50 determination showing cytotoxicity of a ^99 Tc-isonitrile complex that is transported by the P-glycoprotein in vitro. Survival of parental V79 and multidrug resistant LZ cells (A) and parental Alex and multidrug resistant Alex/A.5 cells (B) in increasing concentrations of carrier-added ^99 Tc-MIBI. Methods: Cell survival assays were performed by plating 4,000-20,000 cells per well in 96 well microtiter plates in triplicate in three separate experiments. V79 and LZ cells were grown essentially as described in Example 2 while Alex and Alex/A.5 were grown as described by Goldstein, L., et al., J. Natl. Cancer Inst. 81:116 (1989). Multidrug resistant cells were cultured in drug free media for 72-96 hours prior to culture in ^99 Tc-MIBI. Surviving cells were assayed by staining with sulforhodamine B (Mazzanti, R., et al., J. Cell Pharmacol. 1:50 (1990)) at 72 hours for V79 and LZ cells or 96 hours for Alex and Alex A.5 cells. Survival was expressed as the percentage of surviving cells relative to growth in alpha-MEM media without ^99 Tc-MIBI. […] LD50 determinations were obtained by interpolation from the cell survival curves.
(§2) Micromolar concentrations of carrier-added 99Tc-MIBI is shown to be cytotoxic in hamster lung fibroblast cells (A) and human carcinoma cells (B) (FIG. 5). […]

Alex and Alex/A.5 cells = experiment: Cell survival / cytotoxicity, Alex and Alex/A.5 cells (sulforhodamine B); format: cell-based, human
Protocol: as §1, §2

tumors = details: human, in vivo; cited from earlier work
[3] = tested on: V79 cells (multidrug resistance P-glycoprotein)
Protocol: as §3, §4

cells and mitochondria = details: cited from earlier work
[4] = tested on: P-glycoprotein enriched membrane vesicles; details: multidrug resistant cell vesicles; cited from earlier work

## C=C[C@H]1C[N@@]2CC[C@H]1C[C@@H]2[C@@H](O)c1ccnc2ccc(OC)cc12 [Quinidine]
P-glycoprotein
  Inhibition of photoaffinity labeling of P-glycoprotein by vinblastine analog: inhibited

## c1ccc([P+](c2ccccc2)(c2ccccc2)c2ccccc2)cc1 [TPP^+]
Mitochondrial function
  Toxic effects on mitochondrial function: toxic effects on mitochondrial function

## [99Tc].[C-]#[N+]CC(C)(C)OC.[C-]#[N+]CC(C)(C)OC.[C-]#[N+]CC(C)(C)OC.[C-]#[N+]CC(C)(C)OC.[C-]#[N+]CC(C)(C)OC.[C-]#[N+]CC(C)(C)OC [Tc-MIBI, hexakis (2-methoxyisobutyl isonitrile) technetium-99m (I)]
[1]
  Net accumulation of Tc-MIBI: 0.3 fmoles Tc-MIBI/mg protein per nmolar extracellular Tc-MIBI
[2]
  Toxic activity at imaging doses: no toxic activity; also recorded: without chemotoxic effects
V79 and LZ cells; V79 vs LZ
  Toxicity in drug-sensitive V79 compared to multidrug-resistant derivative (LZ): 11 fold
V79 and LZ cells; micromolar concentrations, carrier-added
  Cytotoxicity in hamster lung fibroblast cells: cytotoxic
Alex and Alex/A.5 cells; Alex vs Alex/A.5, 96 hours
  Toxicity in drug-sensitive human Alexander cells compared to multidrug-resistant derivative (Alex/A.5): 13 fold
Alex and Alex/A.5 cells; micromolar concentrations, carrier-added, 96 hours
  Cytotoxicity in human carcinoma cells: cytotoxic
tumors
  Uptake within known bronchial carcinomas: uptake
  Uptake within mediastinal and pulmonary metastasis from thyroid cancer: uptake
  Uptake within untreated malignant lung lesions: uptake
[3]
  Plateau net accumulation in V79 cells relative to LZ cells: 20 fold

## CCOC(=O)C1=C(C)NC(C)=C(C(=O)OCCNC(=O)c2ccc(N=[N+]=[N-])cc2)C1c1ccccc1C(F)(F)F (centres unmarked) [azidopine]
P-glycoprotein
  Inhibition of photoaffinity labeling of P-glycoprotein by vinblastine analog: inhibited

## COc1cccc2c1C(=O)c1c(O)c3c(c(O)c1C2=O)C[C@@](O)(C(C)=O)C[C@@H]3O[C@H]1C[C@H](N)[C@H](O)[C@H](C)O1 [daunomycin]
P-glycoprotein
  Inhibition of photoaffinity labeling of P-glycoprotein by vinblastine analog: inhibited

## COC(=O)[C@H]1[C@H]2C[C@@H]3c4[nH]c5cc(OC)ccc5c4CCN3C[C@H]2C[C@@H](OC(=O)c2cc(OC)c(OC)c(OC)c2)[C@@H]1OC [reserpine]
P-glycoprotein
  Inhibition of photoaffinity labeling of P-glycoprotein by vinblastine analog: inhibited

## COC(=O)c1ccccc1-c1c2ccc(=N)cc-2oc2cc(N)ccc12 [rhodamine 123]
Cells and mitochondria
  Toxicity to cells and mitochondria: toxic to cells and mitochondria
Mitochondrial function
  Toxic effects on mitochondrial function: toxic effects on mitochondrial function

## CC[C@]1(O)C[C@@H]2CN(CCc3c([nH]c4ccccc34)[C@@](C(=O)OC)(c3cc4c(cc3OC)N(C)[C@H]3[C@@](O)(C(=O)OC)[C@H](OC(C)=O)[C@]5(CC)C=CCN6CC[C@]43[C@@H]65)C2)C1 [vinblastine]
[4]
  Inhibition of labeled vinblastine accumulation in vesicles: inhibited

## CC[C@]1(O)C[C@H]2CN(CCc3c([nH]c4ccccc34)[C@@](C(=O)OC)(c3cc4c(cc3OC)N(C=O)[C@H]3[C@@](O)(C(=O)OC)[C@H](OC(C)=O)[C@]5(CC)C=CCN6CC[C@]43[C@@H]65)C2)C1 [vincristine]
[4]
  Inhibition of labeled vinblastine accumulation in vesicles: inhibited
P-glycoprotein
  Inhibition of photoaffinity labeling of P-glycoprotein by vinblastine analog: inhibited
